Like-named read-outs stand apart in the source and are kept apart here.
Assays:
Pyrenophora teres = assay: In vivo preventive test on Pyrenophora teres (net blotch on barley), Examples D, Q2 and R4; details: Pyrenophora teres, 336 h; for pest or weed control at 100 ppm: Example R4, rate of application 100 ppm
[1] = tested on: Fusarium nivale (var. majus); assay: In vivo preventive Fusarium nivale (var. majus) test (wheat), Example O; details: Microdochium nivale, 120 h, 500 ppm of active ingredient, preventive spray, evaluated 5 days after inoculation, read-out: efficacy
Description: After the spray coating has been dried, the plants are slightly injured by using a sandblast and afterwards they are sprayed with a conidia suspension of Fusarium nivale (var. majus).

Botrytis cinerea = assay: In vivo preventive test on Botrytis cinerea (grey mould) on gherkin, Examples B, Q1 and R2; details: Botrytis cinerea; for pest or weed control at 100 ppm: Example R2, rate of application 100 ppm
Puccinia recondita = assay: In vivo preventive test on Puccinia recondita (brown rust on wheat), Examples C and R3; details: Puccinia recondita, 264 h, preventive spray, evaluated 11 days after inoculation
Pyricularia oryzae = assay: whole plant or invertebrate; type: in vivo; details: 192 h, read-out: efficacy
Septoria tritici = assay: In vivo preventive test on Septoria tritici (leaf spot on wheat), Examples E, Q3 and R5; details: Zymoseptoria tritici, 576 h, preventive spray, evaluated 24 days after inoculation
Fusarium culmorum = assay: In vivo preventive Fusarium culmorum test (wheat), Example L; details: 120 h, 500 ppm of active ingredient, preventive spray, evaluated 5 days after inoculation, read-out: efficacy
Method: After the spray coating has been dried, the plants are slightly injured by using a sandblast and afterwards they are sprayed with a conidia suspension of Fusarium culmorum.
The test is evaluated 5 days after the inoculation.

Leptosphaeria nodorum = assay: In vivo preventive Leptosphaeria nodorum test (wheat), Example N; details: Parastagonospora nodorum, 192 h, 500 ppm of active ingredient, preventive spray, evaluated 8 days after inoculation, read-out: efficacy
Description: After the spray coating has been dried, the plants are sprayed with a spore suspension of Leptosphaeria nodorum.

Uromyces appendiculatus = assay: In vivo preventive test on Uromyces appendiculatus (bean rust), Examples G and R7; details: 264 h, preventive spray, evaluated 11 days after inoculation
Sphaerotheca fuliginea = assay: In vivo preventive test on Sphaerotheca fuliginea (powdery mildew on cucurbits), Examples F and R6; details: Podosphaera fuliginea, 360 h, preventive spray, evaluated 15 days after inoculation
[2] = tested on: Blumeria graminis fsp. hordei; assay: In vivo preventive Blumeria test (barley), Example K; details: 168 h, 500 ppm of active ingredient, preventive spray, evaluated 7 days after inoculation, read-out: efficacy
Description: After the spray coating has been dried, the plants are dusted with spores of Blumeria graminis fsp. hordei.

Alternaria brassicae = assay: In vivo preventive test on Alternaria brassicae (leaf spot on radish), Examples A and R1; details: Alternaria brassicae, 144 h
Fusarium graminearum = assay: whole plant or invertebrate; type: in vivo; details: in Hordeum vulgare, 120 h, read-out: efficacy
[3] = Measurement of LogP values by HPLC on reversed phase columns (EEC directive 79/831 Annex V.A8); type: physicochemical; details: acidic range, Table 1
Method: Measurement of Log P values was performed as outlined above.

Phakopsora pachyrhizi = assay: In vivo preventive Phakopsora test (soybeans), Example I; details: 168 h, 100 ppm of active ingredient, preventive spray, evaluated 7 days after inoculation, read-out: efficacy
Venturia inaequalis = assay: In vivo preventive Venturia test (apples), Example J; details: 240 h, read-out: efficacy
Method: After the spray coating has dried on, the plants are inoculated with an aqueous conidia suspension of the causal agent of apple scab (Venturia inaequalis) and then remain for 1 day in an incubation cabinet at approximately 20° C. and a relative atmospheric humidity of 100%.
The plants are then placed in a greenhouse at approximately 21° C. and a relative atmospheric humidity of approximately 90%.
The test is evaluated 10 days after the inoculation.

Alternaria solani = assay: In vivo preventive Alternaria test (tomatoes), Example H; details: 72 h, 100 ppm of active ingredient, preventive spray, evaluated 3 days after inoculation, read-out: efficacy
[4] = 500 ppm of active ingredient, preventive spray, evaluated 14 days after inoculation, read-out: efficacy
[5] = 500 ppm of active ingredient, preventive spray, evaluated 4 to 5 days after inoculation, read-out: efficacy
[6] = 500 ppm of active ingredient, wheat, read-out: efficacy
[7] = 500 ppm of active ingredient, bean, read-out: efficacy
[8] = 500 ppm of active ingredient, gherkin, read-out: efficacy
[9] = 500 ppm of active ingredient, preventive spray, evaluated 6 days after inoculation, read-out: efficacy
[10] = method [a]: LC-UV, 0.1% formic acid in water and acetonitrile as eluent
[11] = Example R4, rate of application 500 ppm, read-out: Efficacy in %
[12] = Example R2, rate of application 500 ppm, read-out: Efficacy in %
[13] = Example R3, wheat, read-out: Efficacy in %
[14] = Example R3, wheat, 500 ppm, read-out: Efficacy in %
[15] = Example R5, wheat, read-out: Efficacy in %
[16] = Example R5, wheat, 500 ppm, read-out: Efficacy in %
[17] = Example R7, bean, read-out: Efficacy in %
[18] = Example R7, bean, 500 ppm, read-out: Efficacy in %
[19] = Example R6, gherkin, read-out: Efficacy in %
[20] = Example R6, gherkin, 500 ppm, read-out: Efficacy in %

| Compound | pest or weed control at 500 ppm (Pyrenophora teres; [4]) | pest or weed control at 500 ppm [1] | pest or weed control at 500 ppm (Botrytis cinerea; [5]) | pest or weed control at 500 ppm (Puccinia recondita; [6]) | pest or weed control at 500 ppm (Pyricularia oryzae) | pest or weed control at 500 ppm (Septoria tritici; [6]) | pest or weed control at 500 ppm (Fusarium culmorum) | pest or weed control at 500 ppm (Leptosphaeria nodorum) | pest or weed control at 500 ppm (Uromyces appendiculatus; [7]) | pest or weed control at 500 ppm (Sphaerotheca fuliginea; [8]) | pest or weed control at 500 ppm [2] | pest or weed control at 500 ppm (Fusarium graminearum) | chromatographic logP [3, 10] | pest or weed control at 100 ppm (Pyrenophora teres; read-out: Efficacy in %) | pest or weed control at 500 ppm (Pyrenophora teres; [11]) | pest or weed control at 100 ppm (Botrytis cinerea; read-out: Efficacy in %) | pest or weed control at 500 ppm (Botrytis cinerea; [12]) | pest or weed control at 100 ppm (Phakopsora pachyrhizi) | pest or weed control at 100 ppm (Venturia inaequalis) | pest or weed control at 100 ppm (Alternaria solani) | other results |
| --- | --- | --- | --- | --- | --- | --- | --- | --- | --- | --- | --- | --- | --- | --- | --- | --- | --- | --- | --- | --- | --- |
| OC(Cc1ccccc1Cl)(Cn1cncc1Cl)C1(Cl)CC1 (stereo not drawn) [Example I-02] | 90 to 100% | 90 to 100% | 90 to 100% | 80 to 89% | 70 to 79% | 90 to 100% | 70 to 79% | 90 to 100% | 90 to 100% | 90 to 100% | 90 to 100% | 80 to 89% | 2.32 |  |  |  |  |  |  |  | pest or weed control at 500 ppm (Alternaria brassicae; [9]): 90 to 100%; chromatographic logP ([3]; method [c]: LC-UV, 0.1% phosphoric acid and acetonitrile as eluent): 2 |
| N#Cc1cncn1CC(O)(Cc1ccccc1Cl)C1(Cl)CC1 (stereo not drawn) [Example I-06, 1-[2-(1-chlorocyclopropyl)-3-(2-chlorophenyl)-2-hydroxypropyl]-1H-imidazole-5-carbonitrile] | 90 to 100% | 90 to 100% | 90 to 100% | 90 to 100% | 90 to 100% | 90 to 100% | 90 to 100% | 90 to 100% | 90 to 100% | 90 to 100% | 90 to 100% | 90 to 100% | 2.92 | 86% | 93% | 80% | 97% | 90 to 100% | 80 to 89% | 90 to 100% | pest or weed control at 100 ppm (Puccinia recondita; [13]): 89%; pest or weed control at 500 ppm (Puccinia recondita; [14]): 94%; pest or weed control at 100 ppm (Septoria tritici; [15]): 98%; pest or weed control at 500 ppm (Septoria tritici; [16]): 100%; pest or weed control at 100 ppm (Uromyces appendiculatus; [17]): 100%; pest or weed control at 500 ppm (Uromyces appendiculatus; [18]): 100% |
| N#Cc1cncn1CC(O)(Cc1cccnc1Cl)C1(Cl)CC1 (stereo not drawn) [Example I-26] |  | 90 to 100% |  | 90 to 100% | 80 to 89% | 90 to 100% | 90 to 100% | 70 to 79% | 90 to 100% | 90 to 100% | 90 to 100% |  | 2.01 |  |  |  |  | 70 to 79% | 90 to 100% | 80 to 89% |  |
| N#Cc1cncn1CC(O)(Cc1ccccc1F)C1(Cl)CC1 (stereo not drawn) [Example I-34, 1-[2-(1-chlorocyclopropyl)-3-(2-fluorophenyl)-2-hydroxypropyl]-1H-imidazole-5-carbonitrile] | 90 to 100% | 90 to 100% | 90 to 100% | 90 to 100% |  | 90 to 100% | 90 to 100% | 90 to 100% | 90 to 100% | 90 to 100% | 90 to 100% | 90 to 100% | 2.64 | 83% | 98% | 94% | 100% | 90 to 100% | 90 to 100% | 90 to 100% | pest or weed control at 100 ppm (Puccinia recondita; [13]): 94%; pest or weed control at 500 ppm (Puccinia recondita; [14]): 100%; pest or weed control at 100 ppm (Septoria tritici; [15]): 100%; pest or weed control at 500 ppm (Septoria tritici; [16]): 100%; pest or weed control at 100 ppm (Uromyces appendiculatus; [17]): 100%; pest or weed control at 500 ppm (Uromyces appendiculatus; [18]): 100%; pest or weed control at 100 ppm (Sphaerotheca fuliginea; [19]): 100%; pest or weed control at 500 ppm (Sphaerotheca fuliginea; [20]): 100%; pest or weed control at 500 ppm (Alternaria brassicae; [9]): 90 to 100%; pest or weed control at 100 ppm (Alternaria brassicae; Example R1, rate of application 100 ppm, read-out: Efficacy in %): 58%; pest or weed control at 500 ppm (Alternaria brassicae; Example R1, rate of application 500 ppm, read-out: Efficacy in %): 92% |
| C#Cc1cncn1CC(O)(Cc1ccccc1F)C1(Cl)CC1 (stereo not drawn) [Example I-36] | 90 to 100% | 90 to 100% | 90 to 100% | 90 to 100% | 90 to 100% | 90 to 100% | 80 to 89% | 80 to 89% | 90 to 100% | 90 to 100% | 90 to 100% |  | 1.89 | 57% | 93% | 100% | 100% | 90 to 100% | 90 to 100% | 90 to 100% | pest or weed control at 100 ppm (Puccinia recondita; [13]): 89%; pest or weed control at 500 ppm (Puccinia recondita; [14]): 94%; pest or weed control at 100 ppm (Septoria tritici; [15]): 83%; pest or weed control at 500 ppm (Septoria tritici; [16]): 75%; pest or weed control at 100 ppm (Uromyces appendiculatus; [17]): 100%; pest or weed control at 500 ppm (Uromyces appendiculatus; [18]): 100%; pest or weed control at 100 ppm (Sphaerotheca fuliginea; [19]): 100%; pest or weed control at 500 ppm (Sphaerotheca fuliginea; [20]): 100% |
| C#Cc1cncn1CC(O)(Cc1ccccc1Cl)C1(Cl)CC1 (stereo not drawn) [Example I-38] | 80 to 89% | 90 to 100% | 90 to 100% | 80 to 89% | 90 to 100% | 90 to 100% | 80 to 89% | 80 to 89% | 90 to 100% | 90 to 100% | 90 to 100% |  | 2.09 |  |  |  |  | 90 to 100% | 90 to 100% | 90 to 100% |  |
| OC(Cc1ccccc1)(Cn1cncc1Cl)C1(Cl)CC1 (stereo not drawn) [Example I-39] | 90 to 100% | 70 to 79% | 90 to 100% | 90 to 100% | 70 to 79% | 90 to 100% | 90 to 100% | 70 to 79% | 90 to 100% | 90 to 100% | 90 to 100% | 90 to 100% | 2.04 |  |  |  |  | 90 to 100% |  | 90 to 100% |  |
| N#Cc1cncn1CC(O)(Cc1cccc(F)c1F)C1(F)CC1 (stereo not drawn) [Example I-95] | 80 to 89% | 90 to 100% |  | 90 to 100% | 70 to 79% | 90 to 100% | 90 to 100% | 80 to 89% | 90 to 100% | 90 to 100% | 90 to 100% | 90 to 100% | 2.37 |  |  |  |  | 90 to 100% | 80 to 89% | 90 to 100% |  |
